Source: patent US20260285850A1, “SUBSTITUTED OXAZOLIDINONES AND IMIDAZOLINONES AS HERBICIDES” (FMC CORPORATION, priority 2023, published 2026)

What was measured:
Type in all cases: in vivo
[1] = tested on: barnyardgrass (Echinochloa crus-galli); assay: Test A preemergence soil spray, visual injury rating 0-100; conditions: 10 days
Method in brief: (§1)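 Preemergence directed soil spray or postemergence spray (2-10 cm, 1-2 leaf); loam/sand mix; compound in non-phytotoxic solvent + surfactant. Greenhouse, 10 d. Visual injury vs untreated, 0 = none, 100 = complete control.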

[2] = tested on: blackgrass (Alopecurus myosuroides); assay: as above; conditions: 10 days
Method in brief: as §1

corn (Zea mays) [3] = assay: as above; conditions: 10 days
Method in brief: as §1

[4] = tested on: green foxtail (Setaria viridis); assay: as above; conditions: 10 days
Method in brief: as §1

kochia (Bassia scoparia) [5] = assay: as above; conditions: 10 days
Method in brief: as §1

[6] = tested on: oat, wild (wild oat, Avena fatua); assay: as above; conditions: 10 days
Method in brief: as §1

[7] = tested on: palmer (palmer amaranth, palmer pigweed, Amaranthus palmeri); assay: as above; conditions: 10 days
Method in brief: as §1

[8] = tested on: ragweed (common ragweed, Ambrosia artemisiifolia); assay: as above; conditions: 10 days
Method in brief: as §1

[9] = tested on: ryegrass, Italian (italian ryegrass, Lolium multiflorum); assay: as above; conditions: 10 days
Method in brief: as §1

soybean (Glycine max) [10] = assay: as above; conditions: 10 days
Method in brief: as §1

[11] = tested on: wheat (Triticum aestivum); assay: as above; conditions: 10 days
Method in brief: as §1

[12] = tested on: barnyardgrass (Echinochloa crus-galli); assay: Test A postemergence application, visual injury rating 0-100
Method in brief: as §1

[13] = tested on: blackgrass (Alopecurus myosuroides); assay: as above
Method in brief: as §1

corn (Zea mays) [14] = assay: as above
Method in brief: as §1

[15] = tested on: galium (catchweed bedstraw, Galium aparine); assay: as above; conditions: Postemergence, 16 g ai/ha, greenhouse 10 days; 0 no effect, 100 complete control
Method in brief: as §1

[16] = tested on: green foxtail (Setaria viridis); assay: as above
Method in brief: as §1

[17] = tested on: horseweed (Erigeron canadensis); assay: as above
Method in brief: as §1

kochia (Bassia scoparia) [18] = assay: as above
Method in brief: as §1

[19] = tested on: oat, wild (wild oat, Avena fatua); assay: as above
Method in brief: as §1

[20] = tested on: palmer (palmer amaranth, palmer pigweed, Amaranthus palmeri); assay: as above
Method in brief: as §1

[21] = tested on: ragweed (common ragweed, Ambrosia artemisiifolia); assay: as above
Method in brief: as §1

[22] = tested on: ryegrass, Italian (italian ryegrass, Lolium multiflorum); assay: as above
Method in brief: as §1

soybean (Glycine max) [23] = assay: as above
Method in brief: as §1

[24] = tested on: wheat (Triticum aestivum); assay: as above
Method in brief: as §1

[25] = tested on: barnyardgrass (Echinochloa crusgalli); assay: Test B flooded paddy test, visual plant response rating 0-100; conditions: 250 g ai/ha, Flood, applied to paddy water, evaluated after 13 days
Method in brief: (§2)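 In this flooded assay, 2-leaf seedlings received compound through the water layer, kept at 3 cm over the soil. Plants were held 13 days in a greenhouse and then visually compared with control pots.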

[26] = tested on: ducksalad (Heteranthera limosa); assay: as above; conditions: 250 g ai/ha, Flood, applied to paddy water, evaluated after 13 days
Method in brief: as §2

rice (Oryza sativa) = assay: as above; conditions: 250 g ai/ha, Flood, applied to paddy water, evaluated after 13 days
Method in brief: as §2

[27] = tested on: sedge, umbrella (small-flower umbrella sedge, Cyperus difformis); assay: as above; conditions: 250 g ai/ha, Flood, applied to paddy water, evaluated after 13 days
Method in brief: as §2

[28] = 62 g ai/ha, 0 = no effect, 100 = complete control
[29] = 62 g ai/ha, postemergence, 10 days, 0 = no effect, 100 = complete control
[30] = Postemergence, 16 g ai/ha, greenhouse 10 days, 0 no effect, 100 complete control

CC1(C(=O)NC2CC=C(C(=O)NS(=O)(=O)C3CC3)C2)CN(c2cc(F)cc(F)c2)C(=O)O1 (racemic) [Compound 90]
Barnyardgrass plant response rating ([1]; 16 g ai/ha, 0 to 100 scale): 0
Barnyardgrass plant response rating (0-100) [1, 28]: 0
Blackgrass plant response rating ([2]; 16 g ai/ha, 0 to 100 scale): 0
Blackgrass plant response rating (0-100) [2, 28]: 0
Corn plant response rating (corn (Zea mays) [3]; 16 g ai/ha, 0 to 100 scale): 0
Corn plant response rating (0-100) (corn (Zea mays) [3]; [28]): 0
Foxtail, Green plant response rating ([4]; 16 g ai/ha, 0 to 100 scale): 0
Foxtail, Green plant response rating (0-100) [4, 28]: 10
Kochia plant response rating (kochia (Bassia scoparia) [5]; 16 g ai/ha, 0 to 100 scale): 0
Kochia plant response rating (0-100) (kochia (Bassia scoparia) [5]; [28]): 0
Oat, Wild plant response rating ([6]; 16 g ai/ha, 0 to 100 scale): 0
Oat, Wild plant response rating (0-100) [6, 28]: 0
Pigweed, Palmer plant response rating ([7]; 16 g ai/ha, 0 to 100 scale): 10
Pigweed, Palmer plant response rating (0-100) [7, 28]: 20
Ragweed plant response rating ([8]; 16 g ai/ha, 0 to 100 scale): 0
Ragweed plant response rating (0-100) [8, 28]: 0
Ryegrass, Italian plant response rating ([9]; 16 g ai/ha, 0 to 100 scale): 0
Ryegrass, Italian plant response rating (0-100) [9, 28]: 0
Soybean plant response rating (soybean (Glycine max) [10]; 16 g ai/ha, 0 to 100 scale): 0
Soybean plant response rating (0-100) (soybean (Glycine max) [10]; [28]): 10
Wheat plant response rating ([11]; 16 g ai/ha, 0 to 100 scale): 0
Wheat plant response rating (0-100) [11, 28]: 0
Barnyardgrass plant response rating (0-100) [12, 29]: 90
Barnyardgrass plant response rating (0 to 100 scale) [12, 30]: 30
Blackgrass plant response rating (0-100) [13, 29]: 80
Blackgrass plant response rating (0 to 100 scale) [13, 30]: 10
Corn plant response rating (0-100) (corn (Zea mays) [14]; [29]): 100
Corn plant response rating (0 to 100 scale) (corn (Zea mays) [14]; [30]): 30
Galium plant response rating (0 to 100 scale) [15]: 40
Foxtail, Green plant response rating (0-100) [16, 29]: 80
Foxtail, Green plant response rating (0 to 100 scale) [16, 30]: 0
Horseweed plant response rating (0-100) [17, 29]: 60
Horseweed plant response rating (0 to 100 scale) [17, 30]: 0
Kochia plant response rating (0-100) (kochia (Bassia scoparia) [18]; [29]): 80
Kochia plant response rating (0 to 100 scale) (kochia (Bassia scoparia) [18]; [30]): 70
Oat, Wild plant response rating (0-100) [19, 29]: 50
Oat, Wild plant response rating (0 to 100 scale) [19, 30]: 20
Pigweed, Palmer plant response rating (0-100) [20, 29]: 70
Pigweed, Palmer plant response rating (0 to 100 scale) [20, 30]: 0
Ragweed plant response rating (0-100) [21, 29]: 30
Ragweed plant response rating (0 to 100 scale) [21, 30]: 0
Ryegrass, Italian plant response rating (0-100) [22, 29]: 70
Ryegrass, Italian plant response rating (0 to 100 scale) [22, 30]: 20
Soybean plant response rating (0-100) (soybean (Glycine max) [23]; [29]): 40
Soybean plant response rating (0 to 100 scale) (soybean (Glycine max) [23]; [30]): 30
Wheat plant response rating (0-100) [24, 29]: 70
Wheat plant response rating (0 to 100 scale) [24, 30]: 40
Plant response rating, Barnyardgrass (0 to 100 scale, 0 is no effect and 100 is complete control) [25]: 0
Plant response rating, Ducksalad (0 to 100 scale, 0 is no effect and 100 is complete control) [26]: 0
Plant response rating, Rice (0 to 100 scale, 0 is no effect and 100 is complete control) (rice (Oryza sativa)): 0
Plant response rating, Sedge, Umbrella (0 to 100 scale, 0 is no effect and 100 is complete control) [27]: 0
